Assay results: US6689764B1, “Treatment of angiogenesis dependent conditions with dextrin sulphate” (priority 1999, dated 2004)
Entries after “also recorded” stand apart in the source; their conditions may differ.

Legend:
[1] = tested on: HUVEC cell line; assay: TCS Biologicals Human Angiogenesis Model (tubule formation); assay type: cell-based
Experimental: The effect of sulphated dextrin on vessel formation of the HUVEC cell line was performed by the use of the TCS Biologicals Human Angiogenesis Model. The assay is supplied as a growing culture of the HUVEC cell line together with culture matrix and additional human cells present (the exact nature of the cells is not known) at the earliest stages of tubule formation in a 24-well format. The positive control reagent was a standard stock solution of VEGF and the negative control was Suramin. After removing the well seals, the cultures were examined for cell morphology to confirm their viability.
Growth medium was provided with the kit and was used to make up the sulphated dextrin at concentrations ranging from 0-1000 μg/ml. The existing medium was aspirated from the wells and replaced with medium containing the dextrin sulphate concentrations in a 0.5ml volume. This was placed at 37° C., in a 5% CO2 containing atmosphere. This was repeated on days 4, 7 and 9.
Between days 7-11 cultures were fixed by the enclosed fixative and stained with the mouse monoclonal anti-PECAM-1 antibody at a 1:4000 dilution (present in blocking buffer). 0.5ml of diluted antibody was added per well and incubated for 60 minutes at 37° C. The secondary antibody (goat anti-mouse lgG alkaline phosphatase conjugate) was diluted 1:500 in blocking buffer and added to the wells after washing for 60 minutes at 37° C. After washing the plate the substrate was prepared; BCIP/NBT tablets were dissolved in distilled water and added to the wells. Following incubation for 5-10 minutes the wells were washed and were imaged using the Leica Qwin image analysis software package.

[2] = tested on: human placental blood vessels; assay: Placental blood vessel in fibrin clot in vitro angiogenesis assay; assay type: cell-based; details: 100 μg/ml; for new vessel formation compared to media alone: up to day 22
Experimental: Compounds were tested at a final concentration of 100 μg/ml. The degree of new vessel formation was quantified blind twice a week using a visual analog scale in which 0=no growth, 1=minimal new vessel formation, 2=significant new vessel formation, and 3=dense new vessel formation. An angiogenesis score was derived from each count by dividing the total score (i.e. the sum of all the wells) by the maximum possible score and then expressing the result as a percentage. This graph is representative of 3 experiments with a total of 20 wells/plate/experiment for each compound tested.
Blood vessels (approximately 1-2 mm diameter) were excised from the apical surface of human placentas within 6 h of an elective Caesarean birth. Use of the placentas for these studies were approved by the Ethics Committee of Hammersmith Hospitals Trust, London. The blood vessels were placed in Hank's balanced salt solution and cut into 1-2 mm fragments using fine dissecting forceps and iridectomy scissors. Residual clots were removed and the blood vessels then soaked in Hank's balanced salt solution.
The effect of each compound on new blood vessel formulation was determined by culturing the blood vessels within a fibrin clot in 24-well tissue culture plates. Thirty μl of bovine thrombin (50 NIH U/ml in 0.15 M sodium chloride) was added to each well followed by 1 ml/well of 3 mg/ml bovine fibrinogen in Medium 199. The thrombin and fibrinogen were rapidly mixed and a blood vessel fragment placed in the centre of the well. Fibrin gel formation occurred rapidly and left the vessel suspended within the gel. One ml/well of Medium 199 supplemented with 20% foetal calf serum, 250 IU/ml penicillin and 250 U/ml streptomycin was then added to each well. ε-arnino-n-caproic acid was also added (300 μg/ml) for the first 4 days and twice weekly thereafter (50 μg/ml) in order to prevent dissolution of the fibrin clot. The vessels were cultured at 37° C. in a humidified incubator for 25 days with the media being changed twice weekly.
The degree of new vessel formation was quantified blind twice a week by three different observers using a visual analogue scale in which 0=no growth, 1=very little new vessel formation, 2=significant new vessel formation and 3=dense new vessel formation. An angiogenesis score was derived from the counts undertaken for each well by dividing the total score by the maximum score possible and then expressing the result as a percentage. On each of 3 separate occasions, each compound was tested in 20 replicate wells. […] Some of the fibrin clots were fixed overnight in 10% formalin, paraffin embedded, sectioned for histology and then stained for the endothelial cell markers Factor VIII and CD31. Results are expressed as the mean±sem. A students t-test was used to determine the level of significance.

[3] = tested on: KSY-1 cells
Experimental: (§1) Human umbilical vein endothelial cells (HUVEC's) were also harvested from umbilical cords by digestion with collagenase type II and cultured in 1% gelatin coated tissue culture flasks in Medium 199 supplemented with 20% fetal bovine serum, 100 IU/ml penicillin, 0.1 mg/ml streptomycin, 2mM L-glutamine, 10 U/ml heparin and 20 μg/ml endothelial cell growth supplement. The KS Y-1 cell line which was established from the pleural effusion of a patient with AIDS-associated Kaposi's sarcoma was also studied. It was CD34 and CD31 positive confirming it as being of endothelial origin.
(§2) The effect of sulphated dextrins on the growth of HUVEC's and KSY-1 cells which were being cultured in the presence of basic fibroblast growth factor (bFGF) or vascular endothelial growth factor (VEGF) was also determined.

[4] = tested on: HUVEC's
Experimental: as §1, §2

[5] = tested on: human umbilical vein endothelial cells; assay: Endothelial microtubule formation assay on Matrigel; assay type: cell-based; details: HUVEC on Matrigel, scored at 18 h
Experimental: FIG. 6: The photomicrographs show endothelial microtubule formation in the presence of sulphated dextrins (×40 magnification). A visual analogue scale was used to determine the extent of tube formation and scored on a scale from 0 (all cells remain single) to 4 (all cells involved in tubular structures) as previously described (ref: 1,14). Space bar=100 microns.
The endothelial microtuble formation assay was performed by isolating human umbilical vein endothelial cells from umbilical cords within 6 h of delivery by caesarean section. The umbilical vein was cannulated and 0.1% collagenase in phosphate buffered saline was introduced and incubated for 20 minutes. The endothelial cells liberated by the collagenase were obtained by washing the umbilical vein with Medium 199. The cells were washed three times with Medium 199 and then cultured in tissue culture flasks coated with fibronectin. […]
Aliquots of Matrigel were dispensed into 35 mm diameter tissue culture dishes on ice and then incubated at 37° C. for 10 min to allow the gel to set. […] At various time points from 8-24 hours, the plates were examined and scored using a published scheme from 0-4, where 0=all adherent cells remain single, and 4=all adherent cells involved in tubular structures. New vessel formation was quantified blind by three different observers at 18 h. […]

[6] = tested on: Kaposi's sarcoma; assay: Phase I clinical trial in patients with late stage AIDS: Kaposi's sarcoma; assay type: in vivo, human
[7] = tested on: peripheral blood mononuclear cells and monocyte-derived-macrophages; assay: D2S cell surface binding to peripheral blood mononuclear cells and monocyte-derived-macrophages; details: PBMC and monocyte-derived-macrophages, read-out: dissociation constant
Experimental: Our previous studies of peripheral blood mononuclear cells and monocyte-derived-macrophages have shown that D2S binds to the cell surface in a specific and saturable manner with a dissociation constant of 82±14 nM.

[8] = tested on: HUVECs; assay: Proliferation induced by bFGF or VEGF, [3H]-thymidine incorporation; assay type: cell-based, human; details: 100 μg/ml, bFGF 10 ng/ml or VEGF 20 ng/ml
Experimental: FIG. 3: Graph to show the effect of sulphated dextrins on the proliferation of HUVECs induced by bFGF or VEGF was measured using a [^3H]-thymidine incorporation assay.
For these experiments, HUVECs (5×10^3/well) were suspended in Medium M199 containing 10% FCS, 2 mM L-glutamine, 100 Iu/ml penicillin and 0.1 mg/ml streptomycin. After 24 h, the media was replaced with fresh media containing either D2S (100 μg/ml) or D6S (100 μg/ml) for 1 h following which either bFGF (10 ng/ml) or VEGF (20 ng/ml, Preprotech, Rocky Hill, N.J.) were added. […] [^3H]-thymidine (1 mCi/ml, Amersham Pharrnacia, Bucks, UK) was added 48 h later and the cells cultured for a further 16 h. Cells were harvested using an automated Betaplate 96 well harvester (Wallac Oy, Turku, Finland) and the radioactivity counted using a Betaplate liquid scintillation counter.

[9] = tested on: HeLa cells; assay: [3H]-dextrin 2-sulphate binding to HeLa cells; details: n=9
[10] = tested on: HPB-ALL cells; assay: [3H]-dextrin 2-sulphate binding to HPB-ALL cells
[11] = tested on: HIV-1; details: intra-peritoneal route, patients with late stage AIDS
[12] = tested on: KSY-1 cell line; assay: Proliferation with bFGF or VEGF, [3H]-thymidine incorporation; assay type: cell-based, human
[13] = Accumulation in cells of the peritoneal cavity and peripheral blood of treated patients; assay type: in vivo, human

Compound: Cc1ccc(C(=O)Nc2ccc(S(=O)(=O)O)c3cc(S(=O)(=O)O)cc(S(=O)(=O)O)c23)cc1NC(=O)c1cccc(NC(=O)Nc2cccc(C(=O)Nc3cc(C(=O)Nc4ccc(S(=O)(=O)O)c5cc(S(=O)(=O)O)cc(S(=O)(=O)O)c45)ccc3C)c2)c1 [Suramin, reference compound]
- branch points, inhibition ([1]; negative control reagent): 98%
- tubule number, inhibitory effect compared to vehicle control ([1]; negative control reagent): 51%

Compound: VEGF
- branch points, elevation ([1]; positive control reagent): 131%
- tubule number, elevation compared to vehicle control ([1]; positive control reagent): 174%

Compound: dextrin
- new vessel formation compared to media alone [2]: no difference
- cell viability (Trypan blue exclusion) [3]: > 95%
- rate of cell division ([3]; KSY-1 cells, 7 day period, twice weekly cell counts): Neither dextrin nor sulphated dextrins affected
- cell viability (Trypan blue exclusion) [4]: > 95%
- rate of cell division ([4]; HUVEC's, 7 day period, twice weekly cell counts): Neither dextrin nor sulphated dextrins affected

Compound: dextrin 2,6-sulphate
- anti-angiogenic activity (microtubule formation) [5]: more than that seen with D2S but less than that seen with D6S

Compound: dextrin 2-sulphate
- Kaposi's sarcoma clinical response [6]: clinical regression of Kaposi's sarcoma in three patients
- Kd [7]: 82 ± 14 nM
- effect on proliferation induced by bFGF or VEGF [8]: do not interfere
- effect on proliferation induced by bFGF or VEGF ([8]; listed as D2S): no significant effect
- Bmax [9]: 4.1±0.2 pmol/10^6 cells
- Kd [9]: 107 ± 12 nM
- Bmax [10]: 4.8±0.3 pmol/10^6 cells
- Kd ([10]; specific and saturable binding, read-out: dissociation constant (Kd)): 82 ± 14 nM
- viral load of HIV-1 [11]: significant and sustained fall
- new blood vessel formation score (scale 0-3) ([2]; day 22): 1
- new vessel formation compared to media alone [2]: reduced the rate of new vessel formation; also recorded: significant reduction in the number of new vessels
- effect on proliferation with bFGF or VEGF [12]: do not interfere
- accumulation in cells of treated patients [13]: accumulated in the peritoneal macrophages and mesothelial cells

Compound: dextrin 6-sulphate
- effect on proliferation induced by bFGF or VEGF [8]: do not interfere
- effect on proliferation induced by bFGF or VEGF ([8]; listed as D6S): no significant effect
- new vessel formation compared to media alone [2]: reduced the rate of new vessel formation
- new vessel formation compared to media alone ([2]; listed as Dextrin 6-sulphate): significant decrease in new vessel formation
- effect on proliferation with bFGF or VEGF [12]: do not interfere
